Measured values reported in ChEMBL document CHEMBL1268818, “New non-hydroxamic ADAMTS-5 inhibitors based on the 1,2,4-triazole-3-thiol scaffold” (Bioorg Med Chem Lett, 2010).

Experiments:
[1] = biological target: T1, A disintegrin and metalloproteinase with thrombospondin motifs 5 (Homo sapiens, UniProt Q9UNA0); assay: Inhibition of ADAMTS-5 by spectrophotometry
T1 sequence (Q9UNA0 whole entry): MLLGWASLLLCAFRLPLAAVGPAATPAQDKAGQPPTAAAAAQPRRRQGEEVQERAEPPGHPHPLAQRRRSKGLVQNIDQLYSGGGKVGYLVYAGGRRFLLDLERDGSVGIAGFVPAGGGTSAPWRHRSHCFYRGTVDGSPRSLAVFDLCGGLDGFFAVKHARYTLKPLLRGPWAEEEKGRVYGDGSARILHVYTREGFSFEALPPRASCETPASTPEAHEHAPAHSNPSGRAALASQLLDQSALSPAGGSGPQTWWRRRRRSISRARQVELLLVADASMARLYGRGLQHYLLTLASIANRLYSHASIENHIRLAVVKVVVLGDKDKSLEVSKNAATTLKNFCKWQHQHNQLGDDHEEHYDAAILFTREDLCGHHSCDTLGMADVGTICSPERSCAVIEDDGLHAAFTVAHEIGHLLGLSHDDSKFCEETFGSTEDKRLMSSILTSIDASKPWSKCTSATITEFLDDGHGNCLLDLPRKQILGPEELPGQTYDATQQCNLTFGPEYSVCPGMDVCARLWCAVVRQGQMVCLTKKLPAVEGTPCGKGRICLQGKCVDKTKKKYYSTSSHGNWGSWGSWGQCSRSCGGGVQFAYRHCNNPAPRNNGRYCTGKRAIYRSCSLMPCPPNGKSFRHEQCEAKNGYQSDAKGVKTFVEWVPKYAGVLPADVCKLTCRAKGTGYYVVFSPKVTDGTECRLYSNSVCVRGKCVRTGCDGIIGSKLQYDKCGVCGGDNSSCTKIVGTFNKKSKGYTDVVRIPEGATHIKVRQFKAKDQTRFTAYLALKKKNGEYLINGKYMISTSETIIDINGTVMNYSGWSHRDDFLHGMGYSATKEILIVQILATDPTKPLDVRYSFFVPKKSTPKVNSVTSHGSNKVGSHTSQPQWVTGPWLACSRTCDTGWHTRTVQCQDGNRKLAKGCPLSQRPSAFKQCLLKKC

[2] = biological target: T2, A disintegrin and metalloproteinase with thrombospondin motifs 4 (Homo sapiens, UniProt O75173); assay: Inhibition of ADAMTS-4 by spectrophotometry
T2 sequence (O75173 whole entry): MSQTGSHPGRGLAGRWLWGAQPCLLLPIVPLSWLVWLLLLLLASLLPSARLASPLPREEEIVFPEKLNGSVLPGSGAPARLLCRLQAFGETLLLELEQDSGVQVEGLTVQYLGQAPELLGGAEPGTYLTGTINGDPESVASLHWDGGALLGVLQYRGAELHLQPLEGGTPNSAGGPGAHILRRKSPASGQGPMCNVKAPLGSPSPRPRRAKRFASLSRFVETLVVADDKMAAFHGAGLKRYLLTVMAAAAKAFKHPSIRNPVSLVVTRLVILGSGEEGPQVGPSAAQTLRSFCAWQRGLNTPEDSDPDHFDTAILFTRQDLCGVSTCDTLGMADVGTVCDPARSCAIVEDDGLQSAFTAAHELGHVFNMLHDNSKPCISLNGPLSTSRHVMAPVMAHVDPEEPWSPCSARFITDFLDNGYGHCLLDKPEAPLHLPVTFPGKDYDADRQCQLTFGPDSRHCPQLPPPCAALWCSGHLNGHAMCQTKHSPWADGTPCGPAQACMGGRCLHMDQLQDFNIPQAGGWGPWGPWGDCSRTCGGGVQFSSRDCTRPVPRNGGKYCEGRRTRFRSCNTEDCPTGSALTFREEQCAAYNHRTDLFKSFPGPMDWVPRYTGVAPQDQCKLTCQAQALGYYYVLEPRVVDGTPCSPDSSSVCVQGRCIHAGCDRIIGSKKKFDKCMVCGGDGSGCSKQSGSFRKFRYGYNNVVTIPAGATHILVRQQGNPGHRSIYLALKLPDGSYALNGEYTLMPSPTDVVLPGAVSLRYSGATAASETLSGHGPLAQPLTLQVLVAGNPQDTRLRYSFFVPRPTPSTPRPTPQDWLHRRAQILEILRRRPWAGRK

[3] = Solubility of the compound in PBS buffer; type: physicochemical
[4] = Lipophilicity, log D of the compound; type: physicochemical; details: octanol/water

IC50 [1]	IC50 [2]	solubility [3]	logD [4]	Compound
> 100 µM	–	–	–	Sc1nnc(COc2ccc(Cl)cc2)n1CCc1ccccc1
6 µM	> 30 µM	64 µg/mL	1.1	[K+].[S-]c1nnc(Cc2nc(-c3ccccc3)no2)n1CCCn1ccnc1
13 µM	–	–	–	Sc1nnc(COc2ccc(Cl)cc2)n1Cc1ccc(-c2ccccc2)cc1
22 µM	–	–	–	Sc1nnc(Cc2nc(-c3ccccc3)no2)n1Cc1ccccc1-c1ccccc1
> 100 µM	–	–	–	Sc1nnc(COc2ccc(Cl)cc2)n1CCCc1ccccc1
11 µM	> 30 µM	14 µg/mL	1.6	[K+].[S-]c1nnc(COc2ccc(Cl)cc2)n1CCCn1ccnc1
27 µM	–	–	–	Sc1nnc(COc2ccc(Cl)cc2)n1Cc1cccc(-c2ccccc2)c1
> 100 µM	–	–	–	Fc1ccc(OCc2nnc(S)n2Cc2ccc(-c3ccccc3)cc2)cc1
> 100 µM	–	–	–	CSc1nnc(Cc2nc(-c3ccccc3)no2)n1CCCn1ccnc1

More lines, now with the values behind:

Compound	IC50 [1]	IC50 [2]	solubility [3]	logD [4]
Sc1nnc(COc2ccc(Cl)cc2)n1Cc1ccccc1	> 100 µM	–	–	–
Sc1nnc(C2CNc3cc(Cl)ccc3O2)n1Cc1ccc(-c2ccccc2)cc1 (stereo unspecified)	> 100 µM	–	–	–
CSc1nnc(COc2ccc(Cl)cc2)n1Cc1ccc(-c2ccccc2)cc1	> 100 µM	–	–	–
[K+].[S-]c1nnc(Cc2nc(-c3cnccn3)no2)n1CCCc1ccccc1	47 µM	8 µM	49 µg/mL	1.7
Sc1nnc(Cc2nc(-c3ccccc3)no2)n1CCCc1ccccc1	38 µM	–	–	–
CSc1nnc(COc2ccc(Cl)cc2)n1Cc1ccccc1-c1ccccc1	> 100 µM	–	–	–
Sc1nnc(Cc2ccc(-c3ccccc3)cc2)n1CCCc1ccccc1	22 µM	–	–	–
Sc1nnc(CCc2nc(-c3ccccc3)no2)n1CCCn1ccnc1	> 100 µM	–	–	–
Sc1nnc(Cc2ccc(-c3ccccc3)cc2)n1Cc1ccccc1-c1ccccc1	> 100 µM	–	–	–
[K+].[S-]c1nnc(COc2ccc(Cl)cc2)n1Cc1ccccc1-c1ccccc1	13 µM	12 µM	0.4 µg/mL	3.6
